Results published in US9796741B2 (Achillion Pharmaceuticals, Inc., priority 2014, dated 2017).
Read-outs that look alike come from different tables or passages of the source.

Molecular target: Human factor D (Homo sapiens (Human), UniProt P00746)
Assay: Human Factor D Assay
Assay type: biochemical
Description: Human factor D (purified from human serum, Complement Technology, Inc.) at 80 nM final concentration is incubated with test compound at various concentrations for 5 minutes at room temperature in 50 mM Tris, 1M NaCl, pH 7.5. A synthetic substrate Z-L-Lys-SBzl and DTNB (Ellman's reagent) are added to final concentrations of 100 μM each. The increase in color is recorded at OD405 nm in a microplate in kinetic mode over 30 minutes with 30 second time points in a spectrofluorimeter. IC50 values are calculated by non-linear regression from the percentage of inhibition of complement factor D activity as a function of test compound concentration.

[1] = human factor D 80 nM, substrate Z-L-Lys-SBzl, DTNB

Human factor D, sequence (P00746 26-253): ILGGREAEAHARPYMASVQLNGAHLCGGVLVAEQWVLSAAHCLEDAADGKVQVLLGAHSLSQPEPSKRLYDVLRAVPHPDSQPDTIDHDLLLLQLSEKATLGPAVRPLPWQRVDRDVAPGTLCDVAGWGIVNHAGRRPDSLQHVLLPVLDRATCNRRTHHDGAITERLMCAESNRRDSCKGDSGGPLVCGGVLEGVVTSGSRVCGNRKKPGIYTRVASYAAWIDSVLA

Row | Structure (SMILES) | IC50 [1] [µM] | IC50 [µM]
1 | CC(=O)c1cn(CC(=O)N2C[C@H](F)C[C@H]2C(=O)Nc2cccc(-c3ccccc3Cl)c2F)c2ccc(N3CCN(c4ncc(F)cn4)CC3)cc12 [Compound 32, (2S,4R)-1-(2-(3-acetyl-5-(4-(5-fluoropyrimidin-2-yl)piperazin-1-yl)-1H-indol-1-yl)acetyl)-N-(2′-chloro-2-fluorobiphenyl-3-yl)-4-fluoropyrrolidine-2-carboxamide] | < 1 | –
2 | CC(=O)c1cn(CC(=O)N2C[C@H](F)C[C@H]2C(=O)Nc2cccc(-c3ccccc3Cl)c2F)c2ccc(N3CCN(S(C)(=O)=O)CC3)cc12 [Compound 33, (2S,4R)-1-(2-(3-acetyl-5-(4-(methylsulfonyl)piperazin-1-yl)-1H-indol-1-yl)acetyl)-N-(2′-chloro-2-fluorobiphenyl-3-yl)-4-fluoropyrrolidine-2-carboxamide] | < 1 | –
3 | CC(=O)c1cn(CC(=O)N2C[C@H](F)C[C@H]2C(=O)Nc2ccccc2-c2nc3ccccc3s2)c2ccc(-c3ccnnc3)cc12 [Compound 34, (2S,4R)-1-(2-(3-acetyl-5-(pyridazin-4-yl)-1H-indol-1-yl)acetyl)-N-(2-(benzo[d]thiazol-2-yl)phenyl)-4-fluoropyrrolidine-2-carboxamide] | > 10 | –
4 | CC(=O)c1cn(CC(=O)N2C[C@H](F)C[C@H]2C(=O)NCc2ccccn2)c2ccc(-c3ccnnc3)cc12 [Compound 38, (2S,4R)-1-(2-(3-acetyl-5-(pyridazin-4-yl)-1H-indol-1-yl)acetyl)-4-fluoro-N-(pyridin-2-ylmethyl)pyrrolidine-2-carboxamide] | < 1 | –
5 | NC(=O)c1nn(CC(=O)N2C[C@H](F)C[C@H]2C(=O)NCc2cccnc2)c2ccc(-c3ccnnc3)cc12 [Compound 39, 1-(2-((2S,4R)-4-fluoro-2-(pyridin-3-ylmethylcarbamoyl)pyrrolidin-1-yl)-2-oxoethyl)-5-(pyridazin-4-yl)-1H-indazole-3-carboxamide] | – | 1 to 10
6 | CC(=O)c1cn(CC(=O)N2C[C@H](F)C[C@H]2C(=O)Nc2noc3cc(C(F)(F)F)ccc23)c2ccc(-c3ccnnc3)cc12 [Compound 42, (2S,4R)-1-(2-(3-acetyl-5-(pyridazin-4-yl)-1H-indol-1-yl)acetyl)-4-fluoro-N-(6-(trifluoromethyl)benzo [d]isoxazol-3-yl)pyrrolidine-2-carboxamide] | > 10 | –
7 | CC(=O)c1cn(CC(=O)N2C[C@H](F)C[C@H]2C(=O)NCc2cccc(Cl)c2)c2ccc(-c3ccnnc3)cc12 [Compound 44, (2S,4R)-1-(2-(3-acetyl-5-(pyridazin-4-yl)-1H-indol-1-yl)acetyl)-N-(3-chlorobenzyl)-4-fluoropyrrolidine-2-carboxamide] | < 1 | –
8 | NC(=O)c1nn(CC(=O)N2C[C@H](F)C[C@H]2C(=O)NCc2cccc(Cl)c2)c2ccc(-c3ccnnc3)cc12 [Compound 45, 1-(2-((2S,4R)-2-(3-chlorobenzylcarbamoyl)-4-fluoropyrrolidin-1-yl)-2-oxoethyl)-5-(pyridazin-4-yl)-1H-indazole-3-carboxamide] | < 1 | –
9 | CC(=O)c1cn(CC(=O)N2C[C@H](F)C[C@H]2C(=O)NCc2cc(F)cc(Cl)c2)c2ccc(-c3ccnnc3)cc12 [Compound 46, (2S,4R)-1-(2-(3-acetyl-5-(pyridazin-4-yl)-1H-indol-1-yl)acetyl)-N-(3-chloro-5-fluorobenzyl)-4-fluoropyrrolidine-2-carboxamide] | < 1 | –
10 | NC(=O)c1nn(CC(=O)N2C[C@H](F)C[C@H]2C(=O)Nc2cccnc2)c2ccc(-c3ccnnc3)cc12 [Compound 47, 1-(2-((2S,4R)-4-fluoro-2-(pyridin-3-ylcarbamoyl)pyrrolidin-1-yl)-2-oxoethyl)-5-(pyridazin-4-yl)-1H-indazole-3-carboxamide] | > 10 | –
11 | CCN1Cc2ccc(NC(=O)[C@@H]3C[C@@H](F)CN3C(=O)Cn3nc(C(N)=O)c4cc(-c5ccnnc5)ccc43)cc2C1=O [Compound 48, 1-(2-((2S,4R)-2-(2-ethyl-3-oxoisoindolin-5-ylcarbamoyl)-4-fluoropyrrolidin-1-yl)-2-oxoethyl)-5-(pyridazin-4-yl)-1H-indazole-3-carboxamide] | > 10 | –
12 | CCN1Cc2ccc(NC(=O)[C@@H]3C[C@@H](F)CN3C(=O)Cn3cc(C(C)=O)c4cc(-c5ccnnc5)ccc43)cc2C1=O [Compound 49, (2S,4R)-1-(2-(3-acetyl-5-(pyridazin-4-yl)-1H-indol-1-yl)acetyl)-N-(2-ethyl-3-oxoisoindolin-5-yl)-4-fluoropyrrolidine-2-carboxamide] | – | 1 to 10
13 | NC(=O)c1nn(CC(=O)N2C[C@H](F)C[C@H]2C(=O)Nc2ccc3ncsc3c2)c2ccc(-c3ccnnc3)cc12 [Compound 50, 1-(2-((2S,4R)-2-(benzo[d]thiazol-6-ylcarbamoyl)-4-fluoropyrrolidin-1-yl)-2-oxoethyl)-5-(pyridazin-4-yl)-1H-indazole-3-carboxamide] | > 10 | –
14 | NC(=O)c1nn(CC(=O)N2C[C@H](F)C[C@H]2C(=O)N[C@@H]2CCC[C@@H]2OCc2ccccc2)c2ccc(-c3ccnnc3)cc12 [Compound 51, 1-(2-((2S,4R)-2-((1R,2S)-2-(benzyloxy)cyclopentylcarbamoyl)-4-fluoropyrrolidin-1-yl)-2-oxoethyl)-5-(pyridazin-4-yl)-1H-indazole-3-carboxamide] | > 10 | –
15 | NC(=O)c1nn(CC(=O)N2C[C@H](F)C[C@H]2C(=O)NCc2nc3ccccc3s2)c2ccc(-c3ccnnc3)cc12 [Compound 52, 1-(2-((2S,4R)-2-(benzo[d]thiazol-2-ylmethylcarbamoyl)-4-fluoropyrrolidin-1-yl)-2-oxoethyl)-5-(pyridazin-4-yl)-1H-indazole-3-carboxamide] | > 10 | –
16 | CC(=O)c1cn(CC(=O)N2C[C@H](F)C[C@H]2C(=O)Nc2nc(-c3ccc4c(c3)CCCC4)cs2)c2ccc(-c3ccnnc3)cc12 [Compound 54, (2S,4R)-1-(2-(3-acetyl-5-(pyridazin-4-yl)-1H-indol-1-yl)acetyl)-4-fluoro-N-(4-(5,6,7,8-tetrahydronaphthalen-2-yl)thiazol-2-yl)pyrrolidine-2-carboxamide] | > 10 | –
17 | NC(=O)c1nn(CC(=O)N2C[C@H](F)C[C@H]2C(=O)Nc2nc(-c3ccc4c(c3)CCCC4)cs2)c2ccc(-c3ccnnc3)cc12 [Compound 55, 1-(2-((2S,4R)-4-fluoro-2-(4-(5,6,7,8-tetrahydronaphthalen-2-yl)thiazol-2-ylcarbamoyl)pyrrolidin-1-yl)-2-oxoethyl)-5-(pyridazin-4-yl)-1H-indazole-3-carboxamide] | > 10 | –
18 | CC(=O)c1cn(CC(=O)N2C[C@H](F)C[C@H]2C(=O)Nc2nc(-c3c(C)nc4sccn34)cs2)c2ccc(-c3ccnnc3)cc12 [Compound 57, (2S,4R)-1-(2-(3-acetyl-5-(pyridazin-4-yl)-1H-indol-1-yl)acetyl)-4-fluoro-N-(4-(6-methylimidazo[2,1-b]thiazol-5-yl)thiazol-2-yl)pyrrolidine-2-carboxamide] | > 10 | –
19 | CC(=O)c1cn(CC(=O)N2C[C@H](F)C[C@H]2C(=O)NCc2cccnc2)c2ccc(-c3ccnnc3)cc12 [Compound 59, (2S,4R)-1-(2-(3-acetyl-5-(pyridazin-4-yl)-1H-indol-1-yl)acetyl)-4-fluoro-N-(pyridin-3-ylmethyl)pyrrolidine-2-carboxamide] | – | 1 to 10
20 | CC(=O)c1cn(CC(=O)N2C[C@H](F)C[C@H]2C(=O)Nc2ccc(CNC(=O)OCC3c4ccccc4-c4ccccc43)cc2)c2ccc(-c3ccnnc3)cc12 [Compound 61] | > 10 | –
21 | NC(=O)c1nn(CC(=O)N2C[C@H](F)C[C@H]2C(=O)NCc2cc(F)cc(Cl)c2)c2ccc(-c3ccnnc3)cc12 [Compound 62, 1-(2-((2S,4R)-2-(3-chloro-5-fluorobenzylcarbamoyl)-4-fluoropyrrolidin-1-yl)-2-oxoethyl)-5-(pyridazin-4-yl)-1H-indazole-3-carboxamide] | < 1 | –
22 | CC(=O)c1cn(CC(=O)N2C[C@H](F)C[C@H]2C(=O)Nc2ccccc2N2CCOC2=O)c2ccc(-c3ccnnc3)cc12 [Compound 64, (2S,4R)-1-(2-(3-acetyl-5-(pyridazin-4-yl)-1H-indol-1-yl)acetyl)-4-fluoro-N-(2-(2-oxooxazolidin-3-yl)phenyl)pyrrolidine-2-carboxamide] | > 10 | –
23 | NC(=O)c1nn(CC(=O)N2C[C@H](F)C[C@H]2C(=O)Nc2ccccc2N2CCOC2=O)c2ccc(-c3ccnnc3)cc12 [Compound 65, 1-(2-((2S,4R)-4-fluoro-2-(2-(2-oxooxazolidin-3-yl)phenylcarbamoyl)pyrrolidin-1-yl)-2-oxoethyl)-5-(pyridazin-4-yl)-1H-indazole-3-carboxamide] | > 10 | –
24 | CC(=O)c1cn(CC(=O)N2C[C@H](F)C[C@H]2C(=O)Nc2cncc(Cl)c2)c2ccc(-c3ccnnc3)cc12 [Compound 66, (2S,4R)-1-(2-(3-acetyl-5-(pyridazin-4-yl)-1H-indol-1-yl)acetyl)-N-(5-chloropyridin-3-yl)-4-fluoropyrrolidine-2-carboxamide] | < 1 | –
25 | CC(=O)c1cn(CC(=O)N2C[C@H](F)C[C@H]2C(=O)Nc2cncc(Br)c2)c2ccc(-c3ccnnc3)cc12 [Compound 68, (2S,4R)-1-(2-(3-acetyl-5-(pyridazin-4-yl)-1H-indol-1-yl)acetyl)-N-(5-bromopyridin-3-yl)-4-fluoropyrrolidine-2-carboxamide] | < 1 | –
26 | NC(=O)c1nn(CC(=O)N2C[C@H](F)C[C@H]2C(=O)Nc2nnc(-c3ccc(Cl)c(Cl)c3)s2)c2ccc(-c3ccnnc3)cc12 [Compound 69, 1-(2-((2S,4R)-2-(5-(3,4-dichlorophenyl)-1,3,4-thiadiazol-2-ylcarbamoyl)-4-fluoropyrrolidin-1-yl)-2-oxoethyl)-5-(pyridazin-4-yl)-1H-indazole-3-carboxamide] | > 10 | –
